Experimental data as given in patent US5310938A, “Substituted arylpyrrole compounds” (American Cyanamid Company, priority 1993, dated 1994).
Several values for one entry are separate records, joined by “and”; a condition that tells them apart may be missing. Equal values may be shown once. Read-outs that look alike come from different tables or passages of the source.

Assays:
Caenorhabditis elegans = test: Nematicidal activity against C. elegans (motility rating); assay type: in vivo, C. elegans (Bristol strain); design: key: 9: complete kill; 8: no motility; 7: markedly reduced motility in approximately 95% of worms; 6: reduced motility; 5: slightly reduced motility; 0: normal motility, same as controls; conditions: read at 4 and 24 hours post-immersion
Experimental: Cultures of C. elegans (Bristol strain from J. Lewis) are maintained on E. coli lawns on NG Agar Plates at 20° C. New cultures are established weekly.
Nematodes for testing are washed from 4-5 day old cultures using Fresh Ascaris Ringers Solution (FARS). The worms are further washed with FARS,-containing gentamycin, to reduce bacterial contamination and centrifuged to separate worms from wash solution. This procedure is repeated three times. The washed worms are then added to C. brigassae Maintenance Medium (CbMM), from GIBCOa to which is added gentamycin (600 units/ml) and mycostatin (0.5 mg/ml).
Compounds are dissolved in acetone and made up to volume with equal parts of water. The final test concentration of each compound in the mixture is 150 ppm. The test material is micropipetted (25 ul) into a single well of a 96-well sterile tissue culture plate (COSTAR)^b and the solvent allowed to evaporate. These "treated" plates are used immediately or stored in a refrigerator without apparent adverse effects on the compounds.
A freshly prepared volume ([…]) of C. elegans in CbMM is micropipetted into each treated well and several control wells per plate. Culture plates are incubated at 20° C.
Observations for efficacy are made under a dissecting microscope at 4 and 24 hours post-immersion. Immediately prior to reading the plate, it is gently tapped to stimulate the movement of the worms. Activity is judged based on the drug effects on motility of the adults and larvae. […] Other factors indicating activity are easily noted such as death, rigor mortis, contraction, coiling, paralysis, abnormal twitching, reduced worm population in 48 hours and other deviation from normal behavior.
Day 0 Inoculate E. Coli-NG Agar Dish With 30-40
Day 4 Harvest New C. Elegans Population
Add C. Elegans (25-100 µL) To "Medicated"
Observe for Activity at 4 hours Post-
Day 5 Observe For Activity

Psoroptes cuniculi = test: Filter paper contact test against Psoroptes cuniculi (Rabbit Ear Mite); assay type: in vivo; conditions: Psoroptes ovis
Experimental: On the day prior to the test initiation the drugs to be evaluated are dissolved in acetone and diluted to the desired concentrations. The concentration is calculated so that 400 μl contains the amount of test compound to be placed on each filter paper. 400 μl of this solution is pipetted onto a top (3.7 cm dia.) and bottom (3.5 cm dia.) filter paper disks which are then placed on a ceramic plate to dry. There is a rough and smooth side to the filter paper. Drug should be applied to the rough side which is placed up while drying. When dry the two disks are placed in a Petri dish with the rough sides facing in, separated by one 3 mm glass bead. Dishes are held at room temperature overnight if done the day before the test.
Scab (containing mites) is collected from the ears of infested rabbits the morning of the test. This material is placed in a large Petri dish under an illuminated magnifier. Mites crawl out of the scab and are easily collected on the point of a dissecting needle or one prong of a pair of fine forceps. The top filter paper in each dish is removed and 12 mites are placed on the bottom disk and the top paper replaced. Before replacing the top of the Petri dish the rim of the dish is smeared with Vaseline to trap any escaping mites.
For evaluation tests there are generally 4 replicates of each dose which are counted at 24 hours. After mites are added to the dishes, the dishes in each replicate are placed in a tray which is then placed in a plastic bag with several wet towels and held at room temperature.
After 24 hours dishes are examined under a dissecting scope. Each dish is opened carefully and the top filter paper removed and saved. A 1/2 cm circle is drawn on the bottom filter paper and the paper gently wet in the area of the circle. All mites from the dish are transferred into the wet circle area and counted. The top cover is replaced on each dish and the dishes set aside for at least 15 minutes. After standing the dishes are examined and the mites remaining on the circle counted. These mites are dead. Percent mortality of the mites is then calculated for each treatment.

Ctenocephalides felis = test: Filter paper contact test against the cat flea; assay type: in vivo; conditions: 20.0 μg/cm^2, 24 hour
Experimental: This test is conducted in the same manner as the mite filter paper test described in Example 2 with the following exceptions:
(1) only one filter paper is used on the bottom of the dish;
(2) Unfed fleas that have emerged from pupae within the last 24 hours are used for the test. Fleas are initially collected in glass vials and then temporarily immobilized by placing the vials in ice. Once the fleas are no longer active, vials are opened and fleas dumped into Petri dishes. The number of fleas per dish will vary but generally contain 8-12 fleas.
(3) Dishes are held for 24 hours until the mortality counts are made;
(4) Edges of the Petri dish are sealed with Scotch tape to prevent escape of the fleas; and
(5) Dishes are not opened when test is read but fleas are observed under dissecting scope in the dishes. Some fleas will move under the filter paper so dish should be inverted to check. Fleas are considered dead if they cannot remain upright and jump.

Housefly Larvae = test: Inhibition of pupation of newly emerged housefly larvae; assay type: in vivo; conditions: Musca domestica, 168 h, one week, 27° C., corrected by Abbott's formula
Experimental: In this test system newly emerged housefly larvae are grown on an undefined medium of fermented whole milk and dried beef blood. Compounds are added to the milk and activity is determined by the failure of larvae to pupate.
The test is run in 1 oz. plastic medicine cups. Paper toweling is cut in pieces approximately 3.5×10 cm. Three of these pieces are folded accordion style and placed in each paper cup. A piece of masking tape is placed on the outside of the cup to facilitate numbering. Cups should be prepared prior to the day the test is to begin.
Newly hatched housefly larvae are obtained on the morning the test is to begin. The eggs are laid the night before and larvae usually begin to hatch by 9-10 AM the following morning.
Twenty-four hours before the initiation of the test, one half gallon of whole milk is divided into 5 1-liter beakers and placed in an incubator at 39° C.
The morning of the test, one 250 ml beaker is labeled for each treatment. The fermented milk is removed from the incubator, stirred and poured into each of the small beakers. The beakers are then returned to the incubator and 1-2 g of dried beef blood added to each beaker to distribute blood which will not dissolve. The beakers are again returned to the incubator.
Doses of compounds are calculated so that 0.1 ml contains the amount of compound to be added to 100 ml of milk. Compounds should be dissolved in acetone. 100 μl of acetone is added to each control beaker.
Each beaker is removed from incubator and placed on a magnetic stirrer. The compound is added and thoroughly mixed. Then 20 ml portions are removed and added to labelled test cups (4 reps/treatment). Cups are placed in stainless steel tray until all are prepared. […] The tray containing the cups are then placed in a plastic bag and maintained at room temperature.
The media that the fly eggs are laid in is spread out in a green or black pan so that larvae can be observed. Working under an illuminated magnifier 20 larvae are transferred into each cup using a fine paint brush. Each cup is then sealed in a Zip-Loc sandwich bag with a few pinholes in it.
Bags containing cups are placed on a flat tray and placed in a 27° C. incubator for one week. The majority of the larvae will have pupated at this point.
Trays are then removed from the incubator and the number of pupae in each bag recorded. The paper toweling is removed and examined closely for any pupae that have remained in the cups. Most of the pupae will be loose in the bag. A note is also made of any dead or live developed larvae. If there are larvae that appear capable of pupating, the bag may be returned to the incubator for a day to see if they will pupate.
The percent development of pupae is then calculated. The final results are expressed as a percent inhibition of pupation and are corrected for control mortality by using Abbott's formula.

[1] = system: Trichostrongylus colubriformis; test: Control of helminths (T. colubriformis) in infected gerbils; assay type: in vivo, Trichostrongylus colubriformis (sheep origin) in gerbils
Description: Each test generally consists of 75 infected gerbils, randomly distributed 2 or 3 per cage (the number of animals per cage is consistent within a specific experiment). Generally, there are 8-9 untreated control gerbils (3-4 cages) per test. The remaining cages are assigned a treatment, usually 1 cage per compound or dose.
Compounds administered in diet are fed for 4 days. Animals treated by gavage or injection are generally treated on only 1 day (usually day 7).
In accordance with this test, gerbils are each orally infected by gavage, with about 400 Trichostrongylus colubriformis infective larvae of sheep origin. The infected animals are then permitted to feed and drink ad libitum for six days. On day 7 the infected gerbils are randomly placed in rodent cages 2 or 3 animals per cage. The animals in each cage are weighed and the feed for each cage weighed. If the treatment to be evaluated is medicated feed, said medicated feed is offered on day 7 and continued through day 11 of the trial. If the treatment to be evaluated is a single oral dose or a parenteral treatment, the animals are given the medication by gavage or injection on day 7 and receive unmedicated feed and water through day 11 of the trial. On day 11 the animals and their feed are weighed. Thereafter the animals are euthanized by CO2 inhalation and their small intestines removed, inverted on application sticks and incubated in tap water at 39° C. for 1-5 hours. The sticks and intestines are then discarded and the worms from each treatment counted to determine the % mortality of the worms as compared to untreated controls.

Dermacentor variabilis = test: Filter paper contact test against larval stages of the Dogtick; assay type: in vivo
Experimental: The test procedure used herein is the same procedure described in Example 2, for evaluating the arylpyrroles for control of Psoroptes cuniculi the Rabbit Ear Mite, with the following exceptions:
(1) Unfed larval ticks are obtained from egg masses laid by gravid female ticks removed from dogs and each replicate receives ticks from the same egg mass;
(2) Ticks survive longer than mites in the Petri dishes, thus readings are made 48 hours or longer after the test is initiated; and
(3) When reading the test it may be necessary to blow on the ticks to stimulate their movement.

[2] = 4.0 μg/cm^2, 24 hour, read-out: 24 hour % Mortality
[3] = 24 h, read-out: 24 hour % Mortality

Row | SMILES | Rating Against C. Elegans 150 ppm (Caenorhabditis elegans) | mortality at 4 µg/cm2, 4 µg/cm2 (Psoroptes cuniculi; [2]) [%] | mortality at 20 µg/cm2, 20 µg/cm2 (Ctenocephalides felis) [%] | inhibition at 1 ppm (Housefly Larvae; 1.0 ppm) [%] | inhibition at 10 ppm (Housefly Larvae) [%] | % Helminth removal ([1]; 500 PPM in diet, 4 days) | % Helminth removal ([1]; single oral dose 10 mg/kg) [%] | % Helminth removal ([1]; single oral dose 25 mg/kg) [%] | mortality at 4 µg/cm2, 4 µg/cm2 (Psoroptes cuniculi; [3]) [%] | mortality at 0.01 µg/cm2, 0.01 µg/cm2 (Psoroptes cuniculi; [3]) [%] | mortality at 0.1 µg/cm2, 0.1 µg/cm2 (Psoroptes cuniculi; 0.1 μg/cm^2, 24 hour) [%] | mortality at 1 µg/cm2, 1 µg/cm2 (Psoroptes cuniculi; 1.0 μg/cm^2, 24 hour) [%] | mortality at 16 µg/cm2, 16 µg/cm2 (Psoroptes cuniculi; 16.0 μg/cm^2, 24 hour) [%] | mortality at 1 µg/cm2, 1 µg/cm2 (Dermacentor variabilis; 1.0 μg/cm^2, 48 hour) [%] | mortality at 5 µg/cm2, 5 µg/cm2 (Dermacentor variabilis; 5.0 μg/cm^2, 48 hour) [%] | mortality at 10 µg/cm2, 10 µg/cm2 (Dermacentor variabilis; 10.0 μg/cm^2, 48 hour) [%]
1 | N#Cc1[nH]c(-c2ccc(Cl)cc2)c(C#N)c1Br [3-Bromo-5-(p-chlorophenyl)pyrrole-2,4-dicarbonitrile] | 9 | 48 | 47 | 0 | 100 | 54% and 36% and 50% | 25 | 18 |  |  |  |  |  |  |  | 
2 | O=[N+]([O-])c1cc(C(F)(F)F)[nH]c1-c1ccc(Cl)c(Cl)c1 [2-(3,4-Dichlorophenyl)-3-nitro-5-(trifluoromethyl)-pyrrole] | 9 |  | 73 |  | 100 |  |  |  | 100 |  |  |  |  |  |  | 
3 | CCOCn1c(Cl)c(Cl)c(C#N)c1-c1ccc(C(F)(F)F)cc1 [4,5-Dichloro-1-(ethoxymethyl)-2-(α,α,α-trifluoro-P-tolyl)pyrrole-3-carbonitrile] | 9 | 92 | 71 |  | 64 |  |  |  |  | 48 | 20 | 100 | 100 | 52 | 100 | 97
